Results on 1 compound are retold here after patent publication US20190038624A1 (priority 2017, published 2019).

In series [1] the test system is patient with probable multiple system atrophy. It is filed as in vivo, human. Particulars: single MSA patient, oral Nilotinib 200 mg. An excerpt: A person who presented with inability to walk. The disease started 4 years ago with a slowing of their gait and tremors at rest in both hands. […] They had been experiencing dizziness, dysphagia during the past year, and urinary urgency during the previous six months.
Upon admission, the patient could not walk without assistance and needed intermittent bladder catheterization because of urinary incontinence. […] Informed consent was obtained from the patient and their family before treatment of oral Nilotinib 200 mg […]. The monthly monitoring included a physical and a neurological exam, an electrocardiogram, and complete blood count and chemistry.

Series [2] deals with patients with probable MSA. The series is classed as in vivo, human. Particulars: oral 200 mg daily. The protocol:
Five patients fulfilled the consensus criteria for “probable MSA” and received oral Nilotinib 200 mg daily for 24 weeks. Disease progression was monitored every 4 weeks by measuring the patient's motor and non-motor symptoms with the Unified Multiple System Atrophy Rating Scale (UMSARS). Mini Mental State Examination (MMSE) was used to screen for cognitive impairment. […] However, these AEs resolved with continued administration of the drug. […] Furthermore, there was a significant decline of 6.8 and 2.2 points in the UMSARS and UMSARS-II, respectively, compared to baseline (see FIG. 2). MMSE results were normal throughout treatment.

The subject of another series is PD and DLB subjects. Particulars: 24 weeks of treatment with 300 mg Nilotinib; cited from earlier work.
Setting [3] is: average of five MSA patients, 24 weeks.

Regarding `Cc1cn(-c2cc(NC(=O)c3ccc(C)c(Nc4nccc(-c5cccnc5)n4)c3)cc(C(F)(F)F)c2)cn1` [Nilotinib], the “non-motor symptoms (swallowing, constipation, urinary function)” value in series [1] (24 weeks) was “significant improvement of non-motor symptoms”. In series [1] (24 weeks, could not walk without assistance upon admission), the “walking ability at the end of the study” value is “could walk slowly without assistance”. Also, the nonserious adverse events result in series [1] (24 weeks, no hospitalization, resolved with continuous use) is “mild skin irritation, dizziness, and mild headache”. For the same compound, in series [1] (week 24), the “decrease on the UMSARS compared with baseline” value was found to be 11 points and the “decrease on the UMSARS-II compared with baseline” value was determined as 6 points. Moreover, in series [2] (setting [3]), the “decline in the UMSARS compared to baseline” value is 6.8 points and the “decline in the UMSARS-II compared to baseline” value worked out at 2.2 points. Further, the “non-motor symptoms (swallowing, constipation, urinary function)” value in series [2] (five MSA patients, end of 24 weeks) is “improvement of non-motor symptoms”. In addition, the “decline in UPDRS I-IV” value in the series on PD and DLB subjects is 11.1 points.
